The values that follow come from publication PMC9405451, “Uptake and Immunomodulatory Properties of Betanin, Vulgaxanthin I and Indicaxanthin towards Caco-2 Intestinal Cells” (Antioxidants, 2022).

In one data set the test system is GCLC. The experiment in a line: GCLC mRNA level (qPCR) in cytokine-stimulated Caco-2 cells. The settings on record: 5–80 μM, 6 h cytokine stimulation, vs SC. In kind it is cell-based, human. The procedure: (§1) Confluent Caco-2 cells were stimulated with a cocktail of cytokines comprised of tumour necrosis factor-α (TNF-α, 20 ng mL^−1), interleukin-1β (IL-1β, 40 ng mL^−1), interferon-γ (IFN-γ, 10 ng mL^−1) and lipopolysaccharide (LPS, 100 ng mL^−1) in the presence or absence of BET, VUL and IND treatments (5–80 µM) for 6 h. With the completion of incubations, cells were washed with cold DPBS and lysed with TRIsure reagent (Scientific Laboratory Supplies Ltd.). Total RNA of cell samples was extracted in accordance with the manufacturer’s instructions. After resuspending the RNA pellets in DEPC water, concentration and quality were determined using the NanoQuant plate (Tecan Spark 10M plate reader) at 260 and 280 nm. Reverse transcription of RNA was achieved using the iScript™ cDNA Synthesis Kit (Bio-Rad). Transcription levels of target genes—interleukin 6 (IL-6), IL-8, COX-2, iNOS, NADPH oxidase 1 (NOX-1), NAD(P)H quinone dehydrogenase 1 (NQO-1), heme oxygenase 1 (HO-1), glutamate-cysteine ligase catalytic subunit (GCLC), glutathione peroxidase 1 (GPX-1), glutathione S-transferase 1 (GSTA-1) and GSTP-1 were evaluated using SybrGreen based reagent (SensiFast SYBR Green, SLS Ltd., Galveston, TX, USA) via real-time qPCR using StepOne Plus Real-Time PCR System (Applied Biosystems, Nottingham, UK). […]
Background: In qPCR the cycle at which signal appears reflects the starting amount.

A further data set has as its system COX-2. The experiment in a line: COX-2 mRNA level (qPCR) in cytokine-stimulated Caco-2 cells. To be noted: 5–80 μM, 6 h cytokine stimulation, maximum effect. The data set is classed as cell-based, human. The procedure: as §1
Another data set concerns IL-8. The experiment in a line: IL-8 mRNA level (qPCR) in cytokine-stimulated Caco-2 cells. The data set is classed as cell-based, human. The settings on record: 5–80 μM, 6 h cytokine stimulation, maximum effect. On the procedure: Confluent Caco-2 cells were stimulated with a cocktail of cytokines comprised of tumour necrosis factor-α (TNF-α, 20 ng mL^−1), interleukin-1β (IL-1β, 40 ng mL^−1), interferon-γ (IFN-γ, 10 ng mL^−1) and lipopolysaccharide (LPS, 100 ng mL^−1) in the presence or absence of BET, VUL and IND treatments (5–80 µM) for 6 h. With the completion of incubations, cells were washed with cold DPBS and lysed with TRIsure reagent (Scientific Laboratory Supplies Ltd.). Total RNA of cell samples was extracted in accordance with the manufacturer’s instructions. After resuspending the RNA pellets in DEPC water, concentration and quality were determined using the NanoQuant plate (Tecan Spark 10M plate reader) at 260 and 280 nm. Reverse transcription of RNA was achieved using the iScript™ cDNA Synthesis Kit (Bio-Rad). Transcription levels of target genes—interleukin 6 (IL-6), IL-8, COX-2, iNOS, NADPH oxidase 1 (NOX-1), NAD(P)H quinone dehydrogenase 1 (NQO-1), heme oxygenase 1 (HO-1), glutamate-cysteine ligase catalytic subunit (GCLC), glutathione peroxidase 1 (GPX-1), glutathione S-transferase 1 (GSTA-1) and GSTP-1 were evaluated using SybrGreen based reagent (SensiFast SYBR Green, SLS Ltd., Galveston, TX, USA) via real-time qPCR using StepOne Plus Real-Time PCR System (Applied Biosystems, Nottingham, UK). Primers of target genes were designed and blasted using the NCBI database, whose PCR product sizes were confirmed by 2% agarose gel electrophoresis. The list of primer sequences used in the study is presented in Supplemental Table S1. The calculation of target gene levels was based upon the Livak (2^−ΔΔCT) method with normalisation to the housekeeping gene, β-actin [31].

The next data set relates to iNOS. The experiment in a line: iNOS mRNA level (qPCR) in cytokine-stimulated Caco-2 cells. The data set is classed as cell-based, human. To be noted: 5–80 μM, 6 h cytokine stimulation, maximum effect. The procedure: as §1
In another data set the test system is GSTA-1. The experiment in a line: GSTA-1 mRNA level (qPCR) in cytokine-stimulated Caco-2 cells. The data set is classed as cell-based, human. The settings on record: 5–80 μM, 6 h cytokine stimulation, vs SC. On the procedure:
as §1

Data set [1] can be described thus: EPR spin-trapping superoxide radical scavenging assay. The settings on record: 20, 50 μM betalain. On the procedure: Electron paramagnetic resonance (EPR) with spin trapping was used to determine superoxide and DPPH radical scavenging abilities of betalains reflected by the reduction of relative signal strength. EPR spectra were recorded 1 min after reagent mixing on a JEOL X320 spectrometer (X-band) in glass capillaries (0.8 mm ID). Superoxide assay was carried out by mixing the following solutions in 30% aqueous ethanol as solvent: hypoxanthine (1 mM, 55 μL), 5,5-dimethyl-1-pyrroline-N-oxide (DMPO) (1 M, 15 μL) and deferoxamine (10 mM, 10 μL). Individual betalains (200 and 500 μM) or solvent control were subsequently added in a volume of 10 μL. The reaction was initiated by the addition of 2 U mL^−1 xanthine oxidase (10 μL), achieving 20 and 50 μM as final concentrations of betalains in the mixture.
The 2,2-diphenyl-1-(2,4,6-trinitrophenyl)hydrazyl (DPPH) assay was conducted by mixing ethanol (40 μL) with 30% aqueous ethanol solutions of DPPH (100 μM, 50 μL) and purified betalains (200 μM, 10 μL), providing the working concentration of betalains as 20 μM. In both assays, acquisition of EPR spectra was started 1 min after reagent mixing. To improve the accuracy of measurements, the signal intensity for the superoxide assay was determined in triplicate by fitting the experimental spectra to the simulated superoxide-DMPO adduct spectra.

The subject of a further data set is NOX-1. The experiment in a line: NOX-1 mRNA level (qPCR) in cytokine-stimulated Caco-2 cells. The data set is classed as cell-based, human. The settings on record: 5–80 μM, 6 h cytokine stimulation, maximum effect. The procedure: as §1
The test system of another data set is Caco-2 cells. The experiment in a line: Intracellular ROS formation (DCFH2-DA) in H2O2-stressed Caco-2 cells. The data set is classed as cell-based, human. To be noted: 200 μM H2O2. On the procedure: The generation of reactive oxygen species (ROS) within Caco-2 cells was determined in 96-well plates with the probe 2′,7′-dichlorodihydrofluorescein diacetate (DCFH2-DA), which is intracellularly deacetylated and oxidised to highly fluorescent 2′,7′-dichlorofluorescein (DCF). DCFH2-DA (30 µM) dissolved in PBS with 1% FBS (v/v) was applied to the confluent Caco-2 cells and incubated for 40 min at 37 °C. After washing, cells were treated with BET, VUL and IND (5–80 μM) for 1 h and subsequently stressed with H2O2 (200 μM) for a further 1 h. The plate was scanned using Tecan Spark 10M^TM with excitation λ of 485 nm and emission λ of 535 nm. Subsequently, the protein content of each well was determined by SRB assay. Briefly, the medium was removed and the cells were washed with PBS and submerged with 50 μL of 0.004% SRB solution (w/v) in 10% trichloroacetic acid (w/v). Cells were incubated at room temperature for 15 min and washed with 1% acetic acid (200 μL, v/v). After treating with Tris base (10 mM, 100 μL), cells were incubated for 5 min under shaking conditions. Finally, the plate was scanned using a Tecan plate reader with excitation λ of 540 nm and emission λ of 590 nm. Results of the ROS assay were normalised to the relative protein content for each well and expressed as the relative fluorescence intensity % (RFI) with respect to the value of positive control.

On the set-up of data set [2]: method as in PMID 18959410. To be noted: cited from earlier work.
Data set [3] relates to differentiated Caco-2 cells. The experiment in a line: Intracellular accumulation in differentiated Caco-2 cells. The data set is classed as in vitro ADME, human. To be noted: 250 μM, 2 h incubation in HBSS. On the procedure:
For accumulation experiments, differentiated Caco-2 cells were incubated with purified BET, VUL and IND (250 μM) for 2 h in HBSS. The cell layer was washed twice with DPBS prior to being scraped into methanol, and pigments were subsequently extracted for LC-MS analysis. The total protein content of lysed cells was determined by bicinchoninic acid (BCA) assay (Pierce™ Thermo Scientific) in accordance with the manufacturer’s instructions.
Betalain compounds from the cell culture samples were quantified and identified by an ultra-high-speed LC fitted with a UV-Vis detector (SPD-20A), followed by a single quadrupole MS with an electrospray ionisation source (ESI) (Shimazu, 2020). HPLC separation was performed by a reverse phase C18 column (100 mm × 2.1 mm I.D., 3.5 μm) at the temperature of 35 °C. […] Betacyanins and betaxanthins were detected at the wavelengths of 536 nm and 486 nm, respectively, and their molecular weights were monitored by ESI-MS with positive ion mode. Compounds were identified based on the m/z values and quantified using standard curves with purified betalains, as shown in Supplemental Figure S1.

Read-outs that look alike come from different tables or passages of the source.

For the compound `O=C(O)C1=C/C(=C/C=[N+]2/CCC[C@H]2C(=O)[O-])C[C@@H](C(=O)O)N1` [IND, indicaxanthin], the “Upregulation of GCLC expression” value in the data set on GCLC was under 25%. Also, in the data set with COX-2, the “Attenuation of COX-2 mRNA levels” value is listed as “up to 34%”. Moreover, the “Downregulation of IL-8 expression vs cytokine control (SC)” value in the data set on IL-8 is given as at most 39%. For the same compound, the “Reduction of iNOS mRNA levels” value with iNOS is under 42%. In addition, the “Induction of GSTA-1 expression” value with GSTA-1 is under 50%. Besides, in data set [1], the “Antiradical activity in superoxide assay (EPR)” value was “did not exhibit any evident antiradical activity”. In addition, the “Attenuation of NOX-1 mRNA levels” value in the data set on NOX-1 was “up to 34%”. For the same compound, the “Reduction of H2O2-stimulated ROS” value with Caco-2 cells (at 80 μM) is 14%. Moreover, the “Loss along the digestion” value in [2] is “minor loss”. The Intracellular accumulation in data set [3] is on record as 0.03 nmol per mg of protein.
With `O=C(O)C1=C/C(=C/C=[N+]2/c3cc(O)c(O[C@@H]4O[C@H](CO)[C@@H](O)[C@H](O)[C@H]4O)cc3C[C@H]2C(=O)[O-])C[C@@H](C(=O)O)N1` [BET, betanin], the “Upregulation of GCLC expression” value with GCLC is under 33%. For the same compound, in the data set on COX-2, the “Attenuation of COX-2 mRNA levels” value is recorded as “up to 34%”. The “Downregulation of IL-8 expression vs cytokine control (SC)” value in the data set with IL-8 is at most 39%. The “Reduction of iNOS mRNA levels” value in the data set on iNOS is recorded as under 42%. Moreover, the “Induction of GSTA-1 expression” value in the data set with GSTA-1 is under 51%. Besides, the “Decrease in EPR signal intensity, superoxide assay” value in [1] is reported as under 35%. The “Attenuation of NOX-1 mRNA levels” value in the data set with NOX-1 is reported as “up to 34%”. Further, in the data set with Caco-2 cells (throughout concentration range 5–80 μM), the “Suppression of H2O2-stimulated ROS” value is under 64%. For the same compound, the “Loss along the digestion” value in data set [2] (purified compound) is reported as “up to 70%”. Further, in data set [3], the Intracellular accumulation is 0.02 nmol per mg of protein.
